Laboratory results published in patent publication US20120258980A1, “Antibacterial Agent for Drug-Resistant Bacteria, Method for Screening for Same, and Use of Same” (priority 2009, published 2012).
In brackets after ≈: the same amount, converted by molar mass. Where two headings read alike, the source gives them in different places.

What was measured:
[1] = test system: methicillin-susceptible S. aureus (MSSA), MRSA and mutants thereof; assay: MIC measurement, Test Example 3 (MSSA, MRSA and sequential gyrA/grlA quinolone-resistant mutants); type: cell-based, Staphylococcus aureus; conditions: for MIC: Staphylococcus aureus
Source text: That is, the first-step quinolone-resistant mutants are bacterial strains which are the same as their parent strains (clinical isolates) except that the genes shown in the corresponding parts of Table 1-1 are mutated. The second-step quinolone-resistant mutants are bacterial strains which are the same as the first-step quinolone-resistant mutants except that the genes shown in the corresponding parts of Table 1-1 are further mutated. The third-step quinolone-resistant mutants are bacterial strains which are the same as the second-step quinolone-resistant mutants except that the genes shown in the corresponding parts of Table 1-1 are further mutated. The fourth-step quinolone-resistant strain is a bacterial strain which is the same as the third-step quinolone-resistant mutant bacteria except that the gene shown in the corresponding part of Table 1-1 is further mutated.
(§1) Each of the bacterial strains listed in Table 1-1 was shake-cultured at 37° C. overnight in 4 mL of a medium (Tryptical Soy Broth: TSB, product of Becton Dickinson and Company). FDA209P was used as a control.
(§2) After completion of culturing, the resultant culture was suspended in a cation-adjusted Mueller Hinton Broth (CAMHB, product of Becton Dickinson and Company). Then, the obtained bacterial culture was adjusted in absorbance with the CAMHB so that the absorbance at 578 nm of the bacterial culture was adjusted to 0.3 measured by an absorption spectrometer. In addition, the resultant bacterial culture was 500-fold diluted with the CAMHB.
(§3) Each of the 500-fold diluted, pre-cultured bacterial cultures was added at 50 μL/well to the CAMHB containing the quinolones and the nybomycins at various concentrations (50 μL/well), followed by statically culturing at 37° C. overnight.
(§4) After completion of culturing, the growth of the bacteria was visually determined based on turbidity to measure MIC in each bacterial strain.

[2] = test system: VISA clinical isolates of MRSA (VI-MRSA) and of MSSA (VI-MSSA); assay: microbe, parasite or virus in culture; type: cell-based, Staphylococcus aureus
Protocol: as §1, §2, §3, §4
(§5) Here, the glycopeptides used were VCM and TEIC. The β-lactam used was OXA.

VRSA clinical isolates = assay: microbe, parasite or virus in culture; type: cell-based; conditions: Staphylococcus aureus
Protocol: as §1, §2, §3, §4, §5

Enterococcus faecalis = assay: MIC measurement, Test Example 6 (enterococcus); type: cell-based; conditions: Enterococcus faecalis, read-out: MIC
Protocol: as §1, §2, §3, §4
Quinolones and nybomycins were evaluated for antibacterial activity against Enterococcus faecalis shown in Table 6, wherein the other strains than NCTC12201 and NCTC12203 were subdivided from Shionogi & Co., Ltd (note that these strains are available also from the Department of Bacteriology, Juntendo University). The NCTC strains are both vancomycin-resistant E. faecalis and available from the National Collection of Type Cultures (NCTC).

For `Cc1cc(=O)n(C)c2c3c4c(cc12)c(C)cc(=O)n4CO3` [DNM, deoxynybomycin], the MIC ([1]; MR5867-2, second-step mutant, further gyrA S84L) was at most 0.063 µg/mL, the MIC ([1]; MR5867-3, third-step mutant, further grlA S80F) was at most 0.063 µg/mL and the MIC ([1]; MR5867-4, fourth-step mutant, further gyrA E88K) was at most 0.063 µg/mL. For the same compound, the MIC ([1]; MS5935-2, second-step mutant, further gyrA S84L) was 0.5 µg/mL (≈ 1.77 µM), the MIC ([1]; MS5935-3, third-step mutant, further grlA E84K) was 0.5 µg/mL (≈ 1.77 µM) and the MIC ([1]; MS5952-2, second-step mutant, further gyrA S84L) was 0.5 µg/mL (≈ 1.77 µM). The MIC ([1]; MS5952-3, third-step mutant, further grlA A116V) was at most 0.063 µg/mL, the “antibacterial activity, comparison between NM and DNM” value ([1]; Table 1-2 strains) was “higher than that of NM” and the MIC ([2]; Staphylococcus aureus, 99/3700-W, VI-MRSA, The United Kingdom) was 0.25 µg/mL (≈ 0.886 µM). The MIC ([2]; Staphylococcus aureus, 99/3759-V, VI-MRSA, The United Kingdom) was 1 µg/mL (≈ 3.54 µM), the MIC ([2]; Staphylococcus aureus, 28160, VI-MRSA, South African Republic) was 0.125 µg/mL (≈ 0.443 µM) and the MIC ([2]; Staphylococcus aureus, 98141, VI-MRSA, France) was 0.125 µg/mL (≈ 0.443 µM). The MIC ([2]; Staphylococcus aureus, A7 (JCSC4842), VI-MRSA, Taiwan) was at most 0.063 µg/mL, the MIC ([2]; Staphylococcus aureus, AMC11094, VI-MRSA, Korea) was 0.125 µg/mL (≈ 0.443 µM) and the MIC ([2]; Staphylococcus aureus, B7 (JCSC4852), VI-MRSA, Taiwan) was 0.125 µg/mL (≈ 0.443 µM). It also gave an MIC ([2]; Staphylococcus aureus, BR1, VI-MRSA, Brazil) of 0.25 µg/mL (≈ 0.886 µM), an MIC ([2]; Staphylococcus aureus, BR2, VI-MRSA, Brazil) of 0.125 µg/mL (≈ 0.443 µM) and an MIC ([2]; Staphylococcus aureus, BR3, VI-MRSA, Brazil) of 0.125 µg/mL (≈ 0.443 µM). It also gave an MIC ([2]; Staphylococcus aureus, BR4, VI-MRSA, Brazil) of 0.25 µg/mL (≈ 0.886 µM), an MIC ([2]; Staphylococcus aureus, BR5, VI-MRSA, Brazil) of 0.25 µg/mL (≈ 0.886 µM) and an MIC ([2]; Staphylococcus aureus, HIP06297, VI-MRSA, America) of 0.125 µg/mL (≈ 0.443 µM). It also gave an MIC ([2]; Staphylococcus aureus, HIP06854, VI-MRSA, America) of 0.5 µg/mL (≈ 1.77 µM), an MIC ([2]; Staphylococcus aureus, HIP07920, VI-MRSA, America) of 0.25 µg/mL (≈ 0.886 µM) and an MIC ([2]; Staphylococcus aureus, HIP07930, VI-MRSA, America) of 0.5 µg/mL (≈ 1.77 µM). The MIC ([2]; Staphylococcus aureus, HIP08926, VI-MRSA, America) was 0.5 µg/mL (≈ 1.77 µM), the MIC ([2]; Staphylococcus aureus, HIP09143, VI-MRSA, America) was 0.5 µg/mL (≈ 1.77 µM) and the MIC ([2]; Staphylococcus aureus, HIP09313, VI-MRSA, America) was 0.125 µg/mL (≈ 0.443 µM). It also gave an MIC ([2]; Staphylococcus aureus, HIP09433, VI-MRSA, America) of 0.5 µg/mL (≈ 1.77 µM), an MIC ([2]; Staphylococcus aureus, HIP09662, VI-MRSA, America) of 0.25 µg/mL (≈ 0.886 µM) and an MIC ([2]; Staphylococcus aureus, HIP09735, VI-MRSA, America) of 0.5 µg/mL (≈ 1.77 µM). The MIC ([2]; Staphylococcus aureus, HIP09737, VI-MSSA, America) was 1 µg/mL (≈ 3.54 µM), the MIC ([2]; Staphylococcus aureus, HIP09740, VI-MRSA, America) was 0.25 µg/mL (≈ 0.886 µM) and the MIC ([2]; Staphylococcus aureus, HIP10267, VI-MRSA, America) was 0.25 µg/mL (≈ 0.886 µM). For the same compound, the MIC ([2]; Staphylococcus aureus, HIP10540, VI-MRSA, America) was at most 0.063 µg/mL, the MIC ([2]; Staphylococcus aureus, HIP12864, VI-MRSA, America) was 0.125 µg/mL (≈ 0.443 µM) and the MIC ([2]; Staphylococcus aureus, HIP13036, VI-MRSA, America) was 0.25 µg/mL (≈ 0.886 µM). The MIC ([2]; Staphylococcus aureus, HIP13057, VI-MRSA, America) was 0.125 µg/mL (≈ 0.443 µM), the MIC ([2]; Staphylococcus aureus, IL (HIP7737), VI-MRSA, America) was 1 µg/mL (≈ 3.54 µM) and the MIC ([2]; Staphylococcus aureus, JCSC7193, VI-MRSA, Thailand) was 0.33 µg/mL (≈ 1.17 µM). The MIC ([2]; Staphylococcus aureus, JCSC7195, VI-MRSA, Thailand) was 0.16 µg/mL (≈ 0.567 µM), the MIC ([2]; Staphylococcus aureus, JCSC7203, VI-MRSA, Thailand) was 0.16 µg/mL (≈ 0.567 µM) and the MIC ([2]; Staphylococcus aureus, LIM2, VI-MRSA, France) was 0.25 µg/mL (≈ 0.886 µM). For the same compound, the MIC ([2]; Staphylococcus aureus, LY-1999-01, VI-MSSA, Oman) was at most 0.063 µg/mL, the MIC ([2]; Staphylococcus aureus, LY-1999-03, VI-MRSA, Oman) was at most 0.063 µg/mL and the MIC ([2]; Staphylococcus aureus, MI (HIP5827), VI-MRSA, America) was at most 0.063 µg/mL. For the same compound, the MIC ([2]; Staphylococcus aureus, MRSA / MSSA / NRS 76 / VISA, NRS76, VI-MSSA, America) was at most 0.063 µg/mL, the MIC ([2]; Staphylococcus aureus, MRSA / MSSA / NRS 79 / VISA, NRS79, VI-MRSA, America) was 1 µg/mL (≈ 3.54 µM) and the MIC ([2]; Staphylococcus aureus, MRSA / MSSA / NRS 118 / VISA, NRS118, VI-MRSA, America) was 2 µg/mL (≈ 7.08 µM). For the same compound, the MIC ([2]; Staphylococcus aureus, MRSA / MSSA / NRS 126 / VISA, NRS126, VI-MRSA, America) was 0.5 µg/mL (≈ 1.77 µM), the MIC ([2]; Staphylococcus aureus, Mu3, VI-MRSA, Japan) was 0.5 µg/mL (≈ 1.77 µM) and the MIC ([2]; Staphylococcus aureus, Mu50, VI-MRSA, Japan) was 0.25 µg/mL (≈ 0.886 µM). It also gave an MIC ([2]; Staphylococcus aureus, NJ (HIP5836), VI-MRSA, America) of 0.25 µg/mL (≈ 0.886 µM), an MIC ([2]; Staphylococcus aureus, P1V44, VI-MSSA, Belgium) of 0.5 µg/mL (≈ 1.77 µM) and an MIC ([2]; Staphylococcus aureus, PC, VI-MRSA, America) of 0.125 µg/mL (≈ 0.443 µM). For the same compound, the MIC ([2]; Staphylococcus aureus, SA MER-S6, VI-MSSA, France) was over 64 µg/mL, the MIC ([2]; Staphylococcus aureus, SA MER-S12, VI-MSSA, France) was over 64 µg/mL and the MIC ([2]; Staphylococcus aureus, SA MER-S20, VI-MSSA, France) was over 64 µg/mL. It also gave an MIC (VRSA clinical isolates; VRS1, VRSA, Michigan) of at most 0.063 µg/mL, an MIC (VRSA clinical isolates; VRS2, VRSA, Pennsylvania) of 0.125 µg/mL (≈ 0.443 µM) and an MIC (VRSA clinical isolates; VRS3, VRSA, New York) of at most 0.063 µg/mL. For the same compound, the MIC (VRSA clinical isolates; VRS4, VRSA, New York) was at most 0.063 µg/mL, the MIC (VRSA clinical isolates; VRS5, VRSA, Michigan) was at most 0.063 µg/mL and the MIC (VRSA clinical isolates; VRS6, VRSA, Michigan) was at most 0.063 µg/mL. For the same compound, the MIC (VRSA clinical isolates; VRS7, VRSA, Michigan) was 0.125 µg/mL (≈ 0.443 µM), the MIC (Enterococcus faecalis; E. faecalis 36-15672, quinolone-susceptible enterococci) was over 64 µg/mL and the MIC (Enterococcus faecalis; E. faecalis 36-15673, quinolone-susceptible enterococci) was over 64 µg/mL. The MIC (Enterococcus faecalis; E. faecalis 36-15678, quinolone-susceptible enterococci) was over 64 µg/mL, the MIC (Enterococcus faecalis; E. faecalis 36-15686, quinolone-resistant enterococci) was 2 µg/mL (≈ 7.08 µM) and the MIC (Enterococcus faecalis; E. faecalis 36-15688, quinolone-susceptible enterococci) was over 64 µg/mL. For the same compound, the MIC (Enterococcus faecalis; E. faecalis 36-15694, quinolone-resistant enterococci) was 2 µg/mL (≈ 7.08 µM), the MIC (Enterococcus faecalis; E. faecalis 36-15696, quinolone-susceptible enterococci) was over 64 µg/mL and the MIC (Enterococcus faecalis; E. faecalis 36-15703, quinolone-resistant enterococci) was 0.25 µg/mL (≈ 0.886 µM). It also gave an MIC (Enterococcus faecalis; E. faecalis 36-15716, quinolone-resistant enterococci) of 4 µg/mL (≈ 14.2 µM), an MIC (Enterococcus faecalis; E. faecalis 36-15718, quinolone-susceptible enterococci) of 32 µg/mL (≈ 113 µM) and an MIC (Enterococcus faecalis; E. faecalis 36-15720, quinolone-susceptible enterococci) of over 64 µg/mL. For the same compound, the MIC (Enterococcus faecalis; E. faecalis 36-15722, quinolone-resistant enterococci) was 4 µg/mL (≈ 14.2 µM), the MIC (Enterococcus faecalis; E. faecalis 36-15726, quinolone-resistant enterococci) was 2 µg/mL (≈ 7.08 µM) and the MIC (Enterococcus faecalis; E. faecalis 36-15730, quinolone-susceptible enterococci) was 64 µg/mL (≈ 227 µM). For the same compound, the MIC (Enterococcus faecalis; E. faecalis 36-15736, quinolone-susceptible enterococci) was over 64 µg/mL, the MIC (Enterococcus faecalis; E. faecalis 36-15741, quinolone-susceptible enterococci) was over 64 µg/mL and the MIC (Enterococcus faecalis; NCTC 12201 / VRE, E. faecalis NCTC12201, vancomycin-resistant (VRE), quinolone-susceptible enterococci) was 16 µg/mL (≈ 56.7 µM). The MIC (Enterococcus faecalis; NCTC 12203 / VRE, E. faecalis NCTC12203, vancomycin-resistant (VRE), quinolone-susceptible enterococci) was over 64 µg/mL.
